Results reported in ChEMBL document CHEMBL4390641, “Design, synthesis and biological evaluation of amide-pyridine derivatives as novel dual-target (SE, CYP51) antifungal inhibitors” (2019).
Active and inactive are the calls of the source. The rule behind the calls is not given here.

What was measured:
Candida albicans [1] = test: Antifungal activity against Candida albicans ATCC 10231 assessed as inhibition of microbial growth by NCCLS protocol based method; format: functional
Nakaseomyces glabratus = test: Antifungal activity against Candida glabrata ATCC 0001 assessed as inhibition of microbial growth by NCCLS protocol based method; format: functional
Pichia kudriavzevii = test: Antifungal activity against Candida krusei ATCC 6258 assessed as inhibition of microbial growth by NCCLS protocol based method; format: functional
Candida tropicalis = test: Antifungal activity against Candida tropicalis ATCC 1369 assessed as inhibition of microbial growth by NCCLS protocol based method; format: functional
Aspergillus fumigatus = test: Antifungal activity against Aspergillus fumigatus KM8001 assessed as inhibition of microbial growth by NCCLS protocol based method; format: functional
Candida albicans [2] = test: Antifungal activity against fluconazole-resistant Candida albicans 100 assessed as inhibition of microbial growth by NCCLS protocol based method; format: functional
Candida albicans [3] = test: Antifungal activity against fluconazole-resistant Candida albicans 103 assessed as inhibition of microbial growth by NCCLS protocol based method; format: functional
Candida albicans [4] = test: Antifungal activity against Candida albicans assessed as inhibition of microbial growth at 25 to 250 nM/mL by polarizing microscopy; format: functional, organism-based
Candida albicans [5] = test: Antifungal activity against Candida albicans assessed as reduction in cell division at 25 to 250 nM/mL by polarizing microscopy; format: functional, organism-based
Candida albicans [6] = test: Antifungal activity against Candida albicans assessed as induction of microbial cell killing at 25 to 250 nM/mL by polarizing microscopy; format: functional, organism-based
Candida albicans [7] = test: Antifungal activity against Candida albicans assessed as reduction in cell volume at 25 to 250 nM/mL by polarizing microscopy; format: functional, organism-based
Candida albicans [8] = test: Antifungal activity against Candida albicans assessed as reduction in proportion of microbes at cell division phase at 25 to 250 nM/mL by polarizing microscopy; format: functional, organism-based
Candida albicans [9] = test: Antifungal activity against Candida albicans assessed as inhibition of microbial growth at 2.5 nM/mL by polarizing microscopy; format: functional, organism-based
Candida albicans [10] = test: Antifungal activity against Candida albicans assessed as induction of cell fracture at 2.5 nM/mL by polarizing microscopy; format: functional, organism-based
Candida albicans [11] = test: Inhibition of SE/CYP51 in Candida albicans ATCC SC5314 assessed as effect on sterol composition by measuring ergosterol level at 16 ug/ml incubated for 90 mins by HPLC analysis (reference value: 64.2%); parameters: scale not given: the % may be the effect or the level left
Candida albicans [12] = test: Inhibition of SE/CYP51 in Candida albicans ATCC SC5314 assessed as effect on sterol composition by measuring Eburicol level at 16 ug/ml incubated for 90 mins by HPLC analysis (reference value: 8.3%); parameters: scale not given: the % may be the effect or the level left
Candida albicans [13] = test: Inhibition of SE/CYP51 in Candida albicans ATCC SC5314 assessed as effect on sterol composition by measuring Lanosterol level at 16 ug/ml incubated for 90 mins by HPLC analysis (reference value: 10.99%); parameters: scale not given: the % may be the effect or the level left
Candida albicans [14] = test: Inhibition of SE/CYP51 in Candida albicans ATCC SC5314 assessed as effect on sterol composition by measuring Squalene level at 16 ug/ml incubated for 90 mins by HPLC analysis; parameters: scale not given: the % may be the effect or the level left
Heme [15] = test: Binding affinity to heme by UV-Visible spectroscopy
Heme [16] = test: Binding affinity to heme by fluorescence spectrum analysis
Candida albicans [17] = test: Inhibition of SE/CYP51 in Candida albicans ATCC SC5314 assessed as effect on sterol composition by measuring Unidentified sterol level at 16 ug/ml incubated for 90 mins by HPLC analysis (reference value: 16.51%); parameters: scale not given: the % may be the effect or the level left

Row | Structure (SMILES) | MIC (Candida albicans [1]) [µg/mL] | MIC (Nakaseomyces glabratus) [µg/mL] | MIC (Pichia kudriavzevii) [µg/mL] | MIC (Candida tropicalis) [µg/mL] | MIC (Aspergillus fumigatus) [µg/mL] | also measured
1 | O=C(N[C@H](C(=O)NCc1cccnc1)c1ccccc1)c1ccc2ccccc2n1 | 8 | 4 | > 16 | 2 | > 16 | –
2 | C[C@H](NC(=O)c1ccc2ccccc2n1)C(=O)NCc1ccncc1 | 0.125 | 0.125 | 0.25 | 0.25 | 1 | MIC (Candida albicans [2]): 0.5 µg/mL; MIC (Candida albicans [3]): 2 µg/mL; growth inhibition (GI) (Candida albicans [4]): Active; Activity (Candida albicans [5]): Active; Activity (Candida albicans [6]): Active; Activity (Candida albicans [7]): Active; Activity (Candida albicans [8]): Active; growth inhibition (GI) (Candida albicans [9]): Active; Activity (Candida albicans [10]): Active; Activity (Candida albicans [11]): 9.02%; Activity (Candida albicans [12]): 27.4%; Activity (Candida albicans [13]): 50.1%; Activity (Candida albicans [14]): 13.4%; Activity (Heme [15]): Active; Activity (Heme [16]): Dose-dependent effect
3 | O=C(CNC(=O)c1ccc2ccccc2n1)NCc1ccncc1 | 0.25 | 0.5 | 0.5 | 0.125 | 2 | MIC (Candida albicans [2]): 2 µg/mL; MIC (Candida albicans [3]): 1 µg/mL; growth inhibition (GI) (Candida albicans [4]): Active; Activity (Candida albicans [5]): Active; Activity (Candida albicans [6]): Active; Activity (Candida albicans [7]): Active; Activity (Candida albicans [8]): Active; growth inhibition (GI) (Candida albicans [9]): Active; Activity (Candida albicans [10]): Active
4 | O=C(CNC(=O)c1ccc2ccccc2c1)NCc1cccnc1 | 1 | 4 | 2 | 0.5 | > 16 | –
5 | CC(C)[C@H](NC(=O)c1ccc2ccccc2c1)C(=O)NCc1cccnc1 | 8 | 2 | 4 | 2 | > 16 | –
6 | O=C(CNC(=O)c1ccc2ccccc2c1)NCc1ccncc1 | 0.25 | 0.25 | 1 | 0.5 | 2 | –
7 | CC(C)[C@H](NC(=O)c1ccc2ccccc2n1)C(=O)NCc1ccncc1 | 0.5 | 2 | 0.5 | 4 | > 16 | –
8 | C[C@H](NC(=O)c1ccc2ccccc2c1)C(=O)NCc1ccncc1 | 0.25 | 1 | 0.5 | 0.25 | 2 | –
9 | O=C(N[C@H](C(=O)NCc1cccnc1)c1ccccc1)c1ccc2ccccc2c1 | > 16 | > 16 | 8 | 8 | > 16 | –
10 | CC(C)[C@H](NC(=O)c1ccc2ccccc2n1)C(=O)NCc1cccnc1 | 0.5 | 0.5 | 1 | 2 | 4 | –
11 | O=C(CNC(=O)c1ccc2ccccc2n1)NCc1cccnc1 | 0.5 | 2 | 0.5 | 1 | 2 | –
12 | CC(C)[C@H](NC(=O)c1ccc2ccccc2c1)C(=O)NCc1ccncc1 | 2 | 0.5 | 0.5 | 2 | 8 | –
13 | O=C(N[C@H](C(=O)NCc1ccncc1)c1ccccc1)c1ccc2ccccc2c1 | 4 | 8 | 4 | > 16 | > 16 | –
14 | O=C(N[C@H](C(=O)NCc1ccncc1)c1ccccc1)c1ccc2ccccc2n1 | 2 | > 16 | 4 | > 16 | > 16 | –
15 | C[C@H](NC(=O)c1ccc2ccccc2n1)C(=O)NCc1cccnc1 | 1 | 0.25 | 2 | 0.5 | 8 | –
16 | OC(Cn1cncn1)(Cn1cncn1)c1ccc(F)cc1F [FLUCONAZOLE] | 0.5 | 1 | 0.5 | 2 | > 16 | MIC (Candida albicans [2]): > 16 µg/mL; MIC (Candida albicans [3]): > 16 µg/mL; growth inhibition (GI) (Candida albicans [4]): Active; Activity (Candida albicans [5]): Active; Activity (Candida albicans [6]): Active; Activity (Candida albicans [7]): Active; Activity (Candida albicans [8]): Active; growth inhibition (GI) (Candida albicans [9]): inactive; Activity (Candida albicans [11]): 11.3%; Activity (Candida albicans [12]): 39.5%; Activity (Candida albicans [13]): 49.2%; Activity (Heme [15]): Active
17 | CN(C/C=C/C#CC(C)(C)C)Cc1cccc2ccccc12 [TERBINAFINE] | 0.25 | 1 | 0.5 | 2 | 2 | MIC (Candida albicans [2]): 8 µg/mL; MIC (Candida albicans [3]): 4 µg/mL; growth inhibition (GI) (Candida albicans [4]): Active; Activity (Candida albicans [5]): Active; Activity (Candida albicans [6]): Active; Activity (Candida albicans [7]): Active; Activity (Candida albicans [8]): Active; growth inhibition (GI) (Candida albicans [9]): inactive; Activity (Candida albicans [11]): 10.6%; Activity (Candida albicans [12]): 21.9%; Activity (Candida albicans [13]): 22.4%; Activity (Candida albicans [14]): 37.8%; Activity (Candida albicans [17]): 7.27%
18 | C[C@H](NC(=O)c1ccc2ccccc2c1)C(=O)NCc1cccnc1 | 0.5 | 1 | 0.5 | 2 | 4 | –
